Patent US6843979B2, “4-haloethenylphenyl tropane:serotonin transporter imaging agents” (Emory University, priority 1999, dated 2005)
Several values for one entry are separate records, joined by “and”; a condition that tells them apart may be missing. Equal entries are not always repeated.

Experiments:
SERT [1] = settings: cited from earlier work
[2] = biological target: dopamine transporter (DAT) (Rattus norvegicus, UniProt P23977); settings: vs [3H]WIN 35428; cited from earlier work
SERT sites = assay: In vitro autoradiography, coronal brain slices; assay type: binding, pig tailed macaque
Protocol: [^18F]FEINT and [^18F]FEBrNT were incubated with pig tailed macaque coronal brain slices and the slices exposed to film for 30 min. […] Incubation of the brain slices with [^18F]FEINT (FIG. 1) and [^18F]FEBrNT and 10 μM citalopram yielded maximal inhibition (90%) of binding.
The radiosynthesis for [^18F] 10a, [^18F]12a, and [^18F]12b employed the tosylates 9a and 13a,b as the substrates respectively. The tosylate 9a was treated with NCA K[^18F]/K222 for 10 min in 1 mL of CH3CN at 85° C. followed by TFA/CH2Cl2 at 27° C. […] [^18F]FEBrNT and [^18F]FEClNT were synthesized from the tosylates 13a and 13b in a similar manner. [^18F]FEINT and [18F]FEBrNT were incubated with pig tailed macaque coronal brain slices.

SERT [3] = biological target: T1, SERT (Rattus norvegicus, UniProt P31652); assay: Ex vivo autoradiographic study in rats; design: species or system Sprague Dawley rat
T1 construct: from tissue; host or cells: brain and other tissues of living male Sprague Dawley rats
Protocol: An initial ex vivo autoradiographic study was performed with either [^18F]FEINT or [^18F]FEBrNT in rats to measure brain penetration and regional distribution. A male Sprague Dawley rat was injected with one mCi of no-carrier added either […].

SERT [4] = biological target: T1, SERT; assay: Tissue uptake of [18F]FEINT in rats; assay type: in vivo, Sprague Dawley rat; settings: for Clearance from the hypothalamus: rat
Protocol: The in vivo regional brain tissue distribution of [^18F]FEBrNT (Table 2) and [^18F]FEINT Tables 3 and 4) were compared with a preliminary study in rats. […] The hypothalamus to cerebellum ratios for [^18F]FEBrNT were 5.7 at 60 min post injection in comparison to 4.8 for [^18F]FEINT. […] The regional distribution of [^18F]FEBrNT and [^18F]FEINT were next studied in the brain of rhesus monkeys.

SERT [5] = biological target: T2, SERT (Macaca mulatta, UniProt Q9MYX0); assay: PET imaging and fluvoxamine displacement in rhesus monkey; assay type: in vivo; settings: anesthetized rhesus monkey; thalamus, hypothalamus, pons / midbrain, brain stem
T2 construct: from tissue; host or cells: brain of a living rhesus monkey
Protocol: FIG. 3 is a graph showing time activity curves of [^18F]FEBrNT in a rhesus monkey in the thalamus (∘), hypothalamus (Δ), pons (⋄) and cerebellum (x) at 0-120 min i.v. post injection.

[6] = Table 3, rat, 60 min after i.v., Fluvoxamine
[7] = Table 3, rat, 60 min after i.v., No block
[8] = Table 4, rat, 30 min after i.v.
[9] = Table 4, rat, 60 min after i.v.
[10] = Table 4, rat, 120 min after i.v.

T1 sequence (P31652 whole entry): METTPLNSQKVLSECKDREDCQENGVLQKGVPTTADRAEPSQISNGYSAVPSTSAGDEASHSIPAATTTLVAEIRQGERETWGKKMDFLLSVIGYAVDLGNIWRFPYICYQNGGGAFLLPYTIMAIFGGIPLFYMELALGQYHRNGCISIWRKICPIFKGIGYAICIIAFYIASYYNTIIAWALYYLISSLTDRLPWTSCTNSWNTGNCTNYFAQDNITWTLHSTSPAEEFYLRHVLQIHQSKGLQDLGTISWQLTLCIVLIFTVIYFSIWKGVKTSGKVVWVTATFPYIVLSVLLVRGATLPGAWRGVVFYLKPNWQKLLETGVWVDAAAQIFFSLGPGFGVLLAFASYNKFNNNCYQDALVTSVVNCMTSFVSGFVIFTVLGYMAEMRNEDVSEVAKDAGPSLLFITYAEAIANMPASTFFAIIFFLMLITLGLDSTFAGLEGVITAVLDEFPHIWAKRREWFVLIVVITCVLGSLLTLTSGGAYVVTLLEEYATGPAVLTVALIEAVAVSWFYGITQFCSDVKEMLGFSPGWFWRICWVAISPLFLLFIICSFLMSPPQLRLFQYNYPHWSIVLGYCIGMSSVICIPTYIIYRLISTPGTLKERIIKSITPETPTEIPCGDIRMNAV
T2 sequence (Q9MYX0 whole entry): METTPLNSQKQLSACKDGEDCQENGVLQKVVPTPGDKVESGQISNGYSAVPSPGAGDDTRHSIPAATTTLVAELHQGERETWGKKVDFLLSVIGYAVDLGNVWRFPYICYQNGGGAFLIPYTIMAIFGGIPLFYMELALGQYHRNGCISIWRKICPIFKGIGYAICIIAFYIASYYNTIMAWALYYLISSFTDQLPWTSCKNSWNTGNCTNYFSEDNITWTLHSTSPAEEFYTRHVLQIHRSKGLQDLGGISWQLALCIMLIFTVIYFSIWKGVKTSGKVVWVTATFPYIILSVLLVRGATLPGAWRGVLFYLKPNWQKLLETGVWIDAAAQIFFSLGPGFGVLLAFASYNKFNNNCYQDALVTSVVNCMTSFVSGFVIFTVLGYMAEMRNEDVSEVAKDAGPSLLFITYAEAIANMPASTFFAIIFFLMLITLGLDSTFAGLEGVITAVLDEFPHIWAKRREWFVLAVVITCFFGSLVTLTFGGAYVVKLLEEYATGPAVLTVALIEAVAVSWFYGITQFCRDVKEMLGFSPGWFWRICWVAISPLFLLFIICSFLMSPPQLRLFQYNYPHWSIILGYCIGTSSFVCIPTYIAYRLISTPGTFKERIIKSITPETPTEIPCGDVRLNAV
Chain of dopamine transporter (DAT) (P23977 whole entry): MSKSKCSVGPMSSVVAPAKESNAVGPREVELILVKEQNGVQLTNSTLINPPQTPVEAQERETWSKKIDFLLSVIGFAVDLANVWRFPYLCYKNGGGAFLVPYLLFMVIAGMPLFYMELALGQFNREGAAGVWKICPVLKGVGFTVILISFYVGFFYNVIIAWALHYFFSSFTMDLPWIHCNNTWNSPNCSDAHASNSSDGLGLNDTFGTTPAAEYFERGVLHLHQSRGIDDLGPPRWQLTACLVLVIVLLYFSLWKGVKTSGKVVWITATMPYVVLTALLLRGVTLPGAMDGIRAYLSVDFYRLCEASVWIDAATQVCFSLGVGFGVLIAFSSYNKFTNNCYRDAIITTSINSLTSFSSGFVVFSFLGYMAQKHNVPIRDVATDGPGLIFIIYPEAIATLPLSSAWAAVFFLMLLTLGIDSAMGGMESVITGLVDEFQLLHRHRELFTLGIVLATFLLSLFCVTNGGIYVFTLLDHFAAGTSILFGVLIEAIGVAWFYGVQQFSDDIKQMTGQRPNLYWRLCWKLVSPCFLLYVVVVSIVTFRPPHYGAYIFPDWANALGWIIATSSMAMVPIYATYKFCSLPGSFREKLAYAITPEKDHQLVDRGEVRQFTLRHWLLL

CC=Cc1ccc(C2CC3CCC(N3)C2C(=O)OC)cc1 (stereo not drawn) [Nor-β-CCPPT, 2β-carbomethoxy-3β-(4′cis-propenylphenyl)notropane]
Selectivity for the SERT over the DAT (SERT [1]): 28 times | IC50 (SERT [1]; vs [3H]paroxetine): 1.15 nM | IC50 [2]: 32 nM

COC(=O)C1C2CCC(CC1c1ccc(CC[18F])c(I)c1)N2 (centres unmarked) [[^18F]FEINT]
Localization of tracer binding in brain slices (SERT sites; slices exposed to film 30 min): localized to the thalamus, hypothalamus, caudate, amygloid complex, putamen and temporal cortex | Inhibition of tracer binding to brain slices (SERT sites; with 10 μM citalopram): 90% | Localization of tracer binding, ex vivo autoradiography (SERT [3]; 1 mCi tracer): localized to the thalamus, hypothalamus, caudate, putamen and amygloid complex | Effect of fluvoxamine block on tracer binding (SERT [3]; fluvoxamine 5 mg/kg 20 min prior to tracer): maximal inhibition of binding | Hypothal/(CB) ratio (SERT [4]; [6]): 3.8 | Striatum/(CB) ratio (SERT [4]; [6]): 2.0 | Tissue uptake, Blood (SERT [4]; [6]): 0.07 (0.06-0.08) % dose/g | Tissue uptake, Cerebellum (SERT [4]; [6]): 0.1 (0.09-0.12) % dose/g | Tissue uptake, Cortex (SERT [4]; [6]): 0.15 (0.15-0.73) % dose/g | Tissue uptake, Hypothalamus (SERT [4]; [6]): 0.38 (0.28-0.45) % dose/g | Tissue uptake, Olf. T. (SERT [4]; [6]): 0.04 (0.19-0.55) % dose/g | Tissue uptake, Prefrontal Cortex (SERT [4]; [6]): 0.18 (0.06-0.41) % dose/g | Tissue uptake, Striatum (SERT [4]; [6]): 0.2 (0.16-1.40) % dose/g | Hypothal/(CB) ratio (SERT [4]; [7]): 4.8 and 4.6 | Striatum/(CB) ratio (SERT [4]; [7]): 2.3 | Tissue uptake, Blood (SERT [4]; [7]): 0.09 (0.09-0.99) % dose/g | Tissue uptake, Cerebellum (SERT [4]; [7]): 0.11 (0.11-0.12) % dose/g | Tissue uptake, Cortex (SERT [4]; [7]): 0.18 (0.15-0.19) % dose/g | Tissue uptake, Hypothalamus (SERT [4]; [7]): 0.5 (0.32-0.77) % dose/g | Tissue uptake, Olf. T. (SERT [4]; [7]): 1.46 (1.24-1.65) % dose/g | Tissue uptake, Prefrontal Cortex (SERT [4]; [7]): 0.25 (0.21-0.29) % dose/g | Tissue uptake, Striatum (SERT [4]; [7]): 0.25 (0.21-0.29) % dose/g | Hypothal/(CB) ratio (SERT [4]; Table 4, rat, 5 min after i.v.): 1.67 | Striatum/(CB) ratio (SERT [4]; Table 4, rat, 5 min after i.v.): 1.45 | Tissue uptake, Blood (SERT [4]; Table 4, rat, 5 min after i.v.): 0.19 (0.15-0.23) | Tissue uptake, Bone (SERT [4]; Table 4, rat, 5 min after i.v.): 0.27 (0.23-0.31) | Tissue uptake, Brain (SERT [4]; Table 4, rat, 5 min after i.v.): 0.65 (0.56-0.75) | Tissue uptake, Cerebellum (SERT [4]; Table 4, rat, 5 min after i.v.): 0.58 (0.51-0.65) | Tissue uptake, Cortex (SERT [4]; Table 4, rat, 5 min after i.v.): 0.76 (0.64-0.96) | Tissue uptake, Hypothalamus (SERT [4]; Table 4, rat, 5 min after i.v.): 0.97 (0.58-1.59) | Tissue uptake, Pre-frontal Cortex (SERT [4]; Table 4, rat, 5 min after i.v.): 0.75 (0.54-0.87) | Tissue uptake, Striatum (SERT [4]; Table 4, rat, 5 min after i.v.): 0.84 (0.59-1.20) | Hypothal/(CB) ratio (SERT [4]; [8]): 2.87 | Striatum/(CB) ratio (SERT [4]; [8]): 1.70 | Tissue uptake, Blood (SERT [4]; [8]): 0.14 (0.13-0.15) | Tissue uptake, Bone (SERT [4]; [8]): 0.70 (0.36-0.92) | Tissue uptake, Brain (SERT [4]; [8]): 0.35 (0.32-0.40) | Tissue uptake, Cerebellum (SERT [4]; [8]): 0.23 (0.22-0.23) | Tissue uptake, Cortex (SERT [4]; [8]): 0.36 (0.34-0.40) | Tissue uptake, Hypothalamus (SERT [4]; [8]): 0.66 (0.51-0.89) | Tissue uptake, Pre-frontal Cortex (SERT [4]; [8]): 0.37 (0.33-0.42) | Tissue uptake, Striatum (SERT [4]; [8]): 0.39 (0.29-0.55) | Hypothal/(CB) ratio (SERT [4]; [9]): 2.67 | Striatum/(CB) ratio (SERT [4]; [9]): 2.44 | Tissue uptake, Blood (SERT [4]; [9]): 0.10 (0.08-0.11) | Tissue uptake, Bone (SERT [4]; [9]): 0.95 (0.53-1.17) | Tissue uptake, Brain (SERT [4]; [9]): 0.14 (0.12-0.18) | Tissue uptake, Cerebellum (SERT [4]; [9]): 0.09 (0.07-0.11) | Tissue uptake, Cortex (SERT [4]; [9]): 0.13 (0.10-0.17) | Tissue uptake, Hypothalamus (SERT [4]; [9]): 0.24 (0.18-0.30) | Tissue uptake, Pre-frontal Cortex (SERT [4]; [9]): 0.14 (0.11-0.19) | Tissue uptake, Striatum (SERT [4]; [9]): 0.22 (0.17-0.31) | Hypothal/(CB) ratio (SERT [4]; [10]): 2.8 and 2.83 | Striatum/(CB) ratio (SERT [4]; [10]): 1.7 and 1.67 | Tissue uptake, Blood (SERT [4]; [10]): 0.63 (0.58-0.68) | Tissue uptake, Bone (SERT [4]; [10]): 1.26 (0.94-1.67) | Tissue uptake, Brain (SERT [4]; [10]): 0.89 (0.08-0.11) | Tissue uptake, Cerebellum (SERT [4]; [10]): 0.06 (0.05-0.08) | Tissue uptake, Cortex (SERT [4]; [10]): 0.09 (0.08-0.11) | Tissue uptake, Hypothalamus (SERT [4]; [10]): 0.17 (0.26-0.17) | Tissue uptake, Pre-frontal Cortex (SERT [4]; [10]): 0.10 (0.09-0.11) | Tissue uptake, Striatum (SERT [4]; [10]): 0.10 (0.09-0.13) | Clearance from the hypothalamus (SERT [4]; at 60 min compared to 5 min post injection): 75% | Clearance from the hypothalamus (SERT [4]; at 120 min compared to 5 min post injection): 85% | Regional brain uptake by PET (SERT [5]): no visible uptake
